Measured values: publication PMC8187357 (Communications Biology, 2021)
Several values for one entry are separate records, joined by “and”; a condition that tells them apart may be missing. Equal values may be shown once. Read-outs that look alike come from different tables or passages of the source.

Assays:
Cl-Channel = assay: CEREP 80 panel binding: Cl-Channel; settings: 10 µM
Experimental: (§1) CEREP 80 panel assay was carried out by Eurofins Cerep Panlabs facility at France. A series of binding assays was carried out to understand the off-target toxicity of CA-170. CA-170 was tested at 10 μM test concentration in duplicates. Compound binding was calculated as a % inhibition of the binding of a radioactively labeled ligand specific for each target. In each experiment the respective reference compound was tested concurrently with CA-170, and the data were compared with historical values determined at Eurofins. The experiment was accepted in accordance with Eurofins validation standard operating procedure. The results are expressed as a percent of control specific binding; (measured specific binding / control specific binding) × 100 and as a percent inhibition of control specific binding; 100−(measured specific binding / control specific binding) × 100 obtained in the presence of CA-170. The IC50 values (concentration causing a half-maximal inhibition of control specific binding) and Hill coefficients (nH) were determined by non-linear regression analysis of the competition curves generated with mean replicate values using Hill equation curve fitting.

Neurotensin NTS1 = target: T1, Neurotensin NTS1 (Homo sapiens, UniProt P30989); assay: CEREP 80 panel binding: Neurotensin; settings: read-out: % Inhibition of Control Specific Binding
T1 construct: Eurofins Cerep Panlabs (contract assay)
T1 sequence (P30989 whole entry): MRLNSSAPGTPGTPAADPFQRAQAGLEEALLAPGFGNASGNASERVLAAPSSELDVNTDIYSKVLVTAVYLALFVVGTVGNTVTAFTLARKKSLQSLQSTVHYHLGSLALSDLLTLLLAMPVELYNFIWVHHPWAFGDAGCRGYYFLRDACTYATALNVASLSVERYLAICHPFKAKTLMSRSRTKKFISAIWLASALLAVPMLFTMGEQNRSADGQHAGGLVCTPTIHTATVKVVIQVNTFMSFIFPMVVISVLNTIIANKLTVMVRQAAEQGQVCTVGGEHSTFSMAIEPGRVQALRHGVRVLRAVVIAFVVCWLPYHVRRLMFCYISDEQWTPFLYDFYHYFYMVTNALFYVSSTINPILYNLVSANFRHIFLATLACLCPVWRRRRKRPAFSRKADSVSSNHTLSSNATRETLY
Experimental: as §1

[1] = tested on: broad panel of receptors and enzymes; assay: CEREP 80-panel profiling, whole panel; format: binding; settings: CEREP profiling assay
Experimental: as §1

Pharmacokinetics in mice = format: in vivo, mouse
Experimental: Animals in Group 1 were administered with 5% w/v dextrose in water and Group 2 were administered with corresponding formulation listed in the Supplementary Table 6 through oral routes. Blood samples (approximately 40 μl) were collected under light isoflurane anesthesia from submandibular at predose, 0.08 (IV), 0.25, 0.5, 1, 2, 4, 8, and 24 h using sparse sampling technique. Plasma samples were separated by centrifugation of whole blood and stored below −70 °C until bioanalysis. All samples were processed for analysis by protein precipitation and analyzed with fit-for-purpose LC–MS/MS method.

CGRP = target: T2, CGRP (Homo sapiens, UniProt O60894+Q16602); assay: CEREP 80 panel binding: CGRP; settings: read-out: % Inhibition of Control Specific Binding
T2 construct: Eurofins Cerep Panlabs (contract assay)
T2 sequence (Q16602 23-461): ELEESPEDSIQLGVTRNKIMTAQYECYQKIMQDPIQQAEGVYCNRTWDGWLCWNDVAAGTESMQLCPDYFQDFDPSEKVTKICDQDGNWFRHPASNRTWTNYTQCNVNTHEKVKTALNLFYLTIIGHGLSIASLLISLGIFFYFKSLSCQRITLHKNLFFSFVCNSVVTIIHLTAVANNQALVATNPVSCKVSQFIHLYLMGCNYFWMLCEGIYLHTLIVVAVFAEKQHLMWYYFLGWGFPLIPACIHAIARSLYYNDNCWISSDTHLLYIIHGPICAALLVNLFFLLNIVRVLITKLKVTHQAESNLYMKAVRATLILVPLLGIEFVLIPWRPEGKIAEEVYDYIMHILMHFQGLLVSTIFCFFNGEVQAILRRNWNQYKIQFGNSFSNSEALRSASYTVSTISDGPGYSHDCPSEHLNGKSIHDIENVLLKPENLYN
T2 sequence (O60894 27-148): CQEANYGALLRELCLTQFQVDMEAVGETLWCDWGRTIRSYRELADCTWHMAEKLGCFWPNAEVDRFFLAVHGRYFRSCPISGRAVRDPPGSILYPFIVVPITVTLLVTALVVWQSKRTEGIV
Experimental: as §1

CT26 colon carcinoma = assay: CT26 model, combination with docetaxel; format: in vivo, mouse; settings: for Individual tumor volumes: CA-170 alone, individual animals; for TGI: CT26 in Balb/c mice, 12 days
Experimental: Studies in syngeneic models including B16 melanoma metastasis model and CT26 colon carcinoma subcutaneous model were performed as described. For the Docetaxel combination experiment in CT26 model, indicated dosage of docetaxel (Source: Docetere® injection by Dr Reddy’s Laboratories) was dosed intraperitoneally to animals. For the CA-170 combination groups, CA-170 (10 mg/kg/day, oral) was dosed ~10 min after docetaxel. Animal grouping, treatment efficacy assessment and %TGI calculations were performed as mentioned above. For the CT26 experiment with cyclophosphamide, 100 mg/kg of cyclophosphamide was dosed once on day 5 intraperitoneally after cell implantation (first day of dosing for all other groups). Anti-PD1 antibody (Clone J43 from BioXcel) was dosed intraperitoneally at 100 µg/animal once every week.

C[C@@H](O)[C@H](NC(=O)N[C@@H](CC(N)=O)c1nc([C@@H](N)CO)no1)C(=O)O [CA-170]
% Inhibition of Control Specific Binding (Cl-Channel): 2% | inhibition at 10 µM (Neurotensin NTS1): 7% | interaction with panel of receptors and enzymes (in words) [1]: minimal or no interaction | AUC (Pharmacokinetics in mice; male, CD-1, mouse, plasma, mice, intravenous 1 mg kg−1, read-out: Mice PK parameters AUCi iv(0-α)): 4200 ng·h/mL | clearance (Pharmacokinetics in mice; male, CD-1, mouse, plasma, mice, intravenous 1 mg kg−1, read-out: Mice PK parameters Clearance (converted)): 12.1 mL/min/kg | bioavailability (Pharmacokinetics in mice; male, CD-1, mouse, plasma, mice, iv 1 mg kg−1, oral 30 mg kg−1, read-out: Mice PK parameters % F): 50% | AUC (Pharmacokinetics in mice; male, CD-1, mouse, plasma, mice, oral 30 mg kg−1, read-out: Mice PK parameters AUC po (0-α)): 19600 ng·h/mL | Cmax (Pharmacokinetics in mice; male, CD-1, mouse, plasma, mice, oral 30 mg kg−1, read-out: Mice PK parameters Cmax): 1720 ng/mL | half-life (Pharmacokinetics in mice; male, CD-1, mouse, plasma, preclinical PK exposure): 204 min | oral bioavailability (in words) (Pharmacokinetics in mice; mouse, in vivo, po): good oral bioavailability | inhibition at 10 µM (CGRP): 1% | Individual tumor volumes (CT26 colon carcinoma; day 1 of treatment): 20.16 mm3 and 32.48 mm3 and 34.58 mm3 and 45.49 mm3 and 48.25 mm3 and 58.95 mm3 and 62 mm3 and 77.12 mm3 and 87.62 mm3 | Individual tumor volumes (CT26 colon carcinoma; day 4 of treatment): 46.73 mm3 and 66.38 mm3 and 43.09 mm3 and 70.24 mm3 and 54.41 mm3 and 118.43 mm3 and 93.26 mm3 and 105.24 mm3 and 188.91 mm3 | Individual tumor volumes (CT26 colon carcinoma; day 6 of treatment): 73.66 mm3 and 96.49 mm3 and 125.38 mm3 and 93.3 mm3 and 88 mm3 and 204.79 mm3 and 132.26 mm3 and 118.36 mm3 and 317.89 mm3 | Individual tumor volumes (CT26 colon carcinoma; day 8 of treatment): 84.62 mm3 and 174.68 mm3 and 185.55 mm3 and 147.74 mm3 and 147.76 mm3 and 334.98 mm3 and 214.88 mm3 and 178.28 mm3 and 601.81 mm3 | Individual tumor volumes (CT26 colon carcinoma; day 11 of treatment): 209.65 mm3 and 360.36 mm3 and 315.63 mm3 and 279.2 mm3 and 265.42 mm3 and 706.83 mm3 and 356.89 mm3 and 376.42 mm3 and 728.46 mm3 | TGI (CT26 colon carcinoma; CA-170 10 mg/kg/day single agent): 43% | TGI (CT26 colon carcinoma; combination CA-170 10 mg/kg and docetaxel 10 mg/kg): 68%
